Where a SMILES comes first, the peptide text is derived from it. Bridges are numbered along the chain shown (N, C = ends). [ ]: non-standard residue; d: D form. The star is where a group is joined. X1 = O=C(O)CN1CCN(CC(=O)O)CCN(Cc2ccc(CC(=O)*)cc2)CC1; Mpa = O=C(O)CCS
What was measured:
[1] = target: T1, human OTR (Homo sapiens, UniProt P30559); experiment: Scintillation proximity assay, displacement of [3H]OT from human OTR; assay type: binding; conditions: for Ki: human OTR
T1 construct: expressed in transfected cells
T1 sequence (P30559 1-389): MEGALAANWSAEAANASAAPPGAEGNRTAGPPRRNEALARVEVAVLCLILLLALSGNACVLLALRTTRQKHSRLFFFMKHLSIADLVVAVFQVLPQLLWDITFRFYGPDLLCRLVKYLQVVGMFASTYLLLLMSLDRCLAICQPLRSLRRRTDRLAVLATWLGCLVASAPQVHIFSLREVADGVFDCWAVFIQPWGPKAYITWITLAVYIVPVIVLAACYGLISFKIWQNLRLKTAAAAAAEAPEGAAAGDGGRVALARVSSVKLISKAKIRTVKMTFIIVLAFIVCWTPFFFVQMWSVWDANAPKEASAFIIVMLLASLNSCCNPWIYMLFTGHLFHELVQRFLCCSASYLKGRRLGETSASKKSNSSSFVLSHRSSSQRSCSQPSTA
Text: (§1) OT analogues were screened in scintillation proximity assays that displace [^3H]OT or [^3H]AVP from the corresponding receptors. […]
(§2) All RCYs reported are decay corrected to the time of 18F delivery. The protocols for performing
(§3) receptor radioligand binding and potency studies on transfected cells to determine affinity

[2] = target: T2, human V1a receptors (Homo sapiens, UniProt P37288); experiment: Scintillation proximity assay, displacement of [3H]AVP from human V1a receptor; assay type: binding
T2 construct: expressed in transfected cells
Text: as §1, §2, §3

[3] = set-up: method as in PMID 693485; conditions: following i.v. injection; cited from earlier work
[4] = in vivo; conditions: rat; for tissue uptake at 0.5 h / tissue uptake at 10 min: female, Wistar, in vivo, total radioactivity; for tissue uptake at 0.5 h: inhaled or intranasal
Description: To investigate the plausibility of i.n. administration for OT-like therapies, given the similar structure and hydrophilic profile between AlF-NODA-dLVT and OT, in vivo tissue distribution of [^18F]AlF-NODA-dLVT was determined following i.n. or i.v. administration. […]. Here, it is anticipated that both routes show independent kinetic and metabolic profiles and the extended apparent availability of OT following i.n. administration supports a longer timeframe for this study.[27],[28] Distribution was determined through gamma counting of radioactivity in isolated tissue. A large portion underwent excretion via kidneys (i.v. 4.6 ± 0.4%ID per g; i.n. 1.31 ± 0.7%ID per g) and urine (i.v. 2.5 ± 1.2%ID per g; i.n. 7.7 ± 2.2%ID per g), as expected from the hydrophilic character of the tracer, similar to previous results found with radiolabelled OT given i.v. (Fig. 4A).[29]
Fig. 4 Biodistribution of [^18F]AlF-NODA-dLVT in rat. […] Both are shown relative to blood levels following either i.n. (30 min) or i.v. (10 min) administration. Each data point corresponds to mean ± SD, n = 3.
All animal experiments were performed in accordance to the Animals (Scientific Procedures) Act 1986 and were approved by the King’s college London ethical review committee. The work was performed under PPL 70/8230 (Reza Rezavi). Adult female Wistar rats (220 ± 4.5 g) were group housed at 21 ± 1 °C in a 12 h light:dark cycle with ad libitum access to standard rat chow and water. [18F]AlF-NODA-dLVT was formulated in 0.9% saline to contain no more than 5% MeOH. Female Wistar rats received a dose of [18F]AlF-NODA-dLVT by tail vein injection (up to 650 μL in volume), or via nasal administration using a syringe with a plastic cannula attached to one nostril (25 μL per nare).
A 0.3 mL insulin syringe, containing a 29-gauge needle, was fitted with a PE10 cannula (15 mm). The cannula was fitted so that it covered approximately 3 mm of the needle tip.
Radioligand was added to the syringe and the activity measured before and after administration to calculate the injected dose (ID). Anesthesia was induced using a mixture of 5% isoflurane and oxygen (Animalcare, UK) at a flow rate of 1 L/min and maintained at 2.5% isoflurane.
Once unresponsive, the rat was held in an almost vertical position and radioactivity was administered through one nare at the back of the nasal cavity.
Rats were sacrificed by removal of the heart under isoflurane anaesthesia at 10 min following tail vein injection or 30 min following i.n. administration. Major organs were excised, washed with saline, weighed and counted in a gamma counter (LKB Wallac 1282), together with standards of the injection mixture. Organ uptake was calculated as percentage injected dose per gram [%ID/g] of tissue mass. Data are reported as mean ± SD.

[5] = physchem; assay type: physicochemical; conditions: pH 7.4
Description: (§4) To justify use of [Al^18F]NODA-dLVT in vivo, tracer lipophilicity and specific binding were determined through a standard shake flask assay and rat brain autoradiography, respectively. A log D7.4 of –0.54 ± 0.1 was established for [Al^18F]NODA-dLVT indicating a hydrophilic profile and potential for low non-specific binding. To investigate the feasibility of [Al^18F]NODA-dLVT for nervous system imaging, tracer was incubated at a concentration of 3 nM, either alone or in the presence of excess OT (10 μM) with brain tissue cut in the sagittal plane to determine total vs. non-specific binding (Fig. 3). This enabled calculation of % specific binding of [Al^18F]NODA-dLVT to regions of brain tissue (ESI, ^† Section 4.2). [^18F]AlF-NODA-dLVT specifically bound regions known to express appreciable levels of OTR (Fig. 3),[23]–[26] including hippocampus (CA1: 53 ± 4%; subiculum, S: 60 ± 1%), central amygdala nucleus (ac: 56 ± 1%), olfactory systems (olfactory tubercle, Tu: 53 ± 5%; anterior olfactory nucleus, AO: 38 ± 2%), acumens nuclei (Acb: 43 ± 4%), and cortical regions (visual cortex, V1: 61 ± 4%; motor cortex, MC: 42 ± 4%).

[6] = target: T3, OTR in rat brain slices (Rattus norvegicus, UniProt P70536); experiment: Rat brain autoradiography, specific binding; conditions: 3 nM tracer, nonspecific with 10 μM OT, rat brain sagittal slices
T3 construct: from tissue; host or cells: sagittal brain sections of male Wistar rats
T3 sequence (P70536 1-388): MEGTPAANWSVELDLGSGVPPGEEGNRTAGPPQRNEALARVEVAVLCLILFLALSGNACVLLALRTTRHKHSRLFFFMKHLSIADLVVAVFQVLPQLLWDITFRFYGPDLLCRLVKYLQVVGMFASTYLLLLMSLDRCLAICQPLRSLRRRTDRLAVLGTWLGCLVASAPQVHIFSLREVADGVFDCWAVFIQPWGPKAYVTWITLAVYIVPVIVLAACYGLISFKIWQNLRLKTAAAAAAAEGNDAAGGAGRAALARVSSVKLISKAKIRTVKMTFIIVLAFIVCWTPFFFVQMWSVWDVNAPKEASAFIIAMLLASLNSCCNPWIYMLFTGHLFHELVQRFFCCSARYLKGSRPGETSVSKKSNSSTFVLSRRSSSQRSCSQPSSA
Description: as §4
Fig. 3 Specific binding profile of [^18F]AlF-NODA-dLVT. Radiograms of total (top; 3 nM [^18F]AlF-NODA-dLVT) and nonspecific binding (bottom; 3 nM [^18F]AlF-NODA-dLVT and 10 μM OT) of [^18F]AlF-NODA-dLVT to rat brain slices in the sagittal pane. Areas with high specific binding are indicated on the figure with arrow heads. Key: AO = anterior olfactory nucleus; CA1 = field CA1 of the hippocampus; Acb = accumbens nuclei; Tu = olfactory tubercle; VMH = ventromedial hypothalamic nuclei; MC = motor cortex; V1 = primary visual cortex; S = subiculum; ac = central amygdala nucleus; lo = lateral olfactory tract. […]
was 84 ± 2%. After 30 min 18F yields remained at 84 ± 3%.
4.1 Tissue Preparation for rat brain autoradiography
Male Wistar rats (250 g; n=3) were stunned then decapitated. Brains were rapidly removed, incubated in 20% sucrose solution for 2 h, and immediately frozen (-80 °C). Tissues were stored at -80 °C until required. Rat brains were sectioned in the sagittal plane (20 µm thickness; according to the atlas of Paxinos and Watson, 1998). Tissues were cut using a cryostat microtome (CM3050S, Leica, UK), and thaw-mounted onto glass microscope slides. Slides were stored at -80 °C until use.
4.2 Autoradiography Procedure
Tissue was thawed to room temperature, dried then washed with ice cold buffer (50 mM Tris, pH 7.4). Sections were air dried and incubated for 1 h at room temperature with [18F]AlF-NODA-dLVT (3 nM) in buffer (50 mM Tris pH 7.4, 10 mM MgCl2). For nonspecific binding, OT (10 µM) was co-incubated with [18F]AlF-NODA-dLVT (3 nM) over the duration of the experiment. After incubation, slides were washed with ice-cold buffer (2 min × 2), followed by a final wash in ice-cold distilled water (2 min). Slides were dried in a cool airstream then exposed to 18F sensitive phosphor screens (Amersham, UK) with [18F]AlF-NODA-dLVT standards in X-ray cassettes overnight. Phosphor screens were imaged using a Typhoon 8600 scanner (Molecular Dynamics) and images were analysed with OptiQuant 5.0 (Perkin Elmer) and FIJI. Values were converted to relative binding percentages using calibrated [18F]AlF-NODA-dLVT standards. Binding potential (BP) is defined as the binding of tracer in brain region/total activity incubated as determined by the standard. Specific binding in each region is calculated by comparing the total and non-specific BP by the equation: ((total BP – non-specific BP)/total BP) × 100.

[7] = target: T4, human vasopressin receptor V2 (Homo sapiens, UniProt P30518); experiment: Scintillation proximity assay, displacement of [3H]AVP from human V2 receptor; assay type: binding
T4 construct: expressed in transfected cells
Text: as §1, §2, §3

T2 sequence (P37288 whole entry): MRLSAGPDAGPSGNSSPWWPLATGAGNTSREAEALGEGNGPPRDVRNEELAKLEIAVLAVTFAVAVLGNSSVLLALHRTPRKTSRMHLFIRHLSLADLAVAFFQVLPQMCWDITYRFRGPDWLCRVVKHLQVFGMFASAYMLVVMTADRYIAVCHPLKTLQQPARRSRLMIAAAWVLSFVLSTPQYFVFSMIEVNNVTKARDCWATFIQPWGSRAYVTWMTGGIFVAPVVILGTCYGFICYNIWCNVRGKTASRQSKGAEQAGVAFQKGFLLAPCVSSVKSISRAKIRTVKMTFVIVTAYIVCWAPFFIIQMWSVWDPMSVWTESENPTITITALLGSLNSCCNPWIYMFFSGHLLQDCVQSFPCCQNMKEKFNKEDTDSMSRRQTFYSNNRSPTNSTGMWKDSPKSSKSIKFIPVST
T4 sequence (P30518 whole entry): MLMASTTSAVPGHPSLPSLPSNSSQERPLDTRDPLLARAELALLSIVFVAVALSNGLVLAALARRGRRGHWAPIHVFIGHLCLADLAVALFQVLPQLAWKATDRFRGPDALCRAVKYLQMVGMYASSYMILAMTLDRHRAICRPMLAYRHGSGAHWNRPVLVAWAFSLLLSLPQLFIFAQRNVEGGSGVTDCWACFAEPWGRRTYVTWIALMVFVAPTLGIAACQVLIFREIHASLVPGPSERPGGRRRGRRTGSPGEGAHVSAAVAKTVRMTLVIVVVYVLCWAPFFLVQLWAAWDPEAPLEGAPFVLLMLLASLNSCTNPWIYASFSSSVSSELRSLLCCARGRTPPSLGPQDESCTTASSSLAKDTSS

CC[C@H](C)[C@@H]1NC(=O)[C@H](Cc2ccc(O)cc2)NC(=O)CCSSC[C@@H](C(=O)N2CCC[C@H]2C(=O)N[C@@H](CC(C)C)C(=O)NCC(N)=O)NC(=O)[C@H](CC(N)=O)NC(=O)[C@H](CCC(N)=O)NC1=O [dOTc]
Ki [1]: 1.6 ± 1.3 nM | Ki [2]: 388 ± 157 nM

CC[C@H](C)[C@@H]1NC(=O)[C@H](Cc2ccc(O)cc2)NC(=O)[C@@H](N)CSSC[C@@H](C(=O)N2CCC[C@H]2C(=O)N[C@@H](CC(C)C)C(=O)NCC(N)=O)NC(=O)[C@H](CC(N)=O)NC(=O)[C@H](CCC(N)=O)NC1=O [OTc, oxytocin]
plasma half-life [3]: approximately 3 min

CC[C@H](C)[C@H](NC(=O)[C@H](Cc1ccc(O)cc1)NC(=O)CCS)C(=O)N[C@@H](CCC(N)=O)C(=O)N[C@@H](CC(N)=O)C(=O)N[C@@H](CS)C(=O)N1CCC[C@H]1C(=O)N[C@@H](CC(C)C)C(=O)NCC(N)=O [dOToc]
Ki [1]: 1.2 ± 0.9 nM | Ki [2]: 362 ± 124 nM

CC[C@H](C)[C@@H]1NC(=O)[C@H](Cc2ccc(O)cc2)NC(=O)CCSSC[C@@H](C(=O)N2CCC[C@H]2C(=O)N[C@@H](CCCCNC(=O)Cc2ccc(CN3CCN(CC(=O)O)CCN(CC(=O)O)CC3)cc2)C(=O)NCC(N)=O)NC(=O)[C@H](CC(N)=O)NC(=O)[C@H](CCC(N)=O)NC1=O [[^18F]AlF-NODA-dLVT] ([Mpa]YIQNCPK(X1)G-NH2; disulfide 1-6)
tissue uptake at 0.5 h ([4]; uptake in brain parenchyma): 0.11 ± 0.03 %ID/g | tissue uptake at 0.5 h ([4]; uptake in cerebellum): 0.31 ± 0.26 %ID/g | tissue uptake at 0.5 h ([4]; uptake in kidneys): 1.31 ± 0.7 %ID/g | tissue uptake at 0.5 h ([4]; uptake in olfactory bulb): 2.3 ± 1.8 %ID/g | tissue uptake at 10 min ([4]; iv, uptake in brain parenchyma): 0.05 ± 0.03 %ID/g | tissue uptake at 10 min ([4]; iv, uptake in cerebellum): 0.05 ± 0.01 %ID/g | tissue uptake at 10 min ([4]; iv, uptake in kidneys): 4.6 ± 0.4 %ID/g | tissue uptake at 10 min ([4]; iv, uptake in olfactory bulb): 0.05 ± 0.02 %ID/g | brain permeable material ([4]; iv): approximately 4.7 × 10^–2 %ID per g | logD [5]: -0.54 | % specific binding, acumens nuclei (Acb) [6]: 43 ± 4% | % specific binding, anterior olfactory nucleus (AO) [6]: 38 ± 2% | % specific binding, central amygdala nucleus (ac) [6]: 56 ± 1% | % specific binding, hippocampus CA1 [6]: 53 ± 4% | % specific binding, motor cortex (MC) [6]: 42 ± 4% | % specific binding, olfactory tubercle (Tu) [6]: 53 ± 5% | % specific binding, subiculum (S) [6]: 60 ± 1% | % specific binding, visual cortex (V1) [6]: 61 ± 4%

CC[C@H](C)[C@H](NC(=O)[C@H](Cc1ccc(O)cc1)NC(=O)CCS)C(=O)N[C@@H](CCC(N)=O)C(=O)N[C@@H](CC(N)=O)C(=O)N[C@@H](CS)C(=O)N1CCC[C@H]1C(=O)N[C@@H](CCCCN)C(=O)NCC(N)=O [dLVToc] ([Mpa]YIQNCPKG-NH2)
Ki [1]: 6.3 ± 3.6 nM | Ki [2]: 31 ± 9 nM | Ki [7]: 5.82 ± 1.7 µM

CC[C@H](C)[C@@H]1NC(=O)[C@H](Cc2ccc(O)cc2)NC(=O)CCSSC[C@@H](C(=O)N2CCC[C@H]2C(=O)N[C@@H](CCCCN)C(=O)NCC(N)=O)NC(=O)[C@H](CC(N)=O)NC(=O)[C@H](CCC(N)=O)NC1=O [dLVTc, reference compound] ([Mpa]YIQNCPKG-NH2; disulfide 1-6)
selectivity towards OTR ([1]; OTR over V1a, from Ki values of Table 1): ~7 fold | Ki [1]: 3.4 ± 1 nM | Ki [2]: 24 ± 5 nM | Ki [7]: 4.84 ± 1.67 µM

— PMC6049614 (Chemical Communications (Cambridge, England), 2018)
